Measurements published in patent US6525001B1, “Substituted pyrimidine and pyridine herbicides” (Mid-American Commercialization Corporation, priority 1997, dated 2003).

Assays:
Assay type in all cases: in vivo
[1] = test system: large crabgrass (Digitaria sanguinalis); assay: Test E pre-/postemergence/post directed
Source text: (§1) Seeds, tubers, or plant parts of alexandergrass (Brachiaria plantaginea), annual bluegrass (Poa annua), arrowleaf sida (Sida rhombifolia), barnyardgrass (Echinochloa crus-galli), bermudagrass (Cynodon dactylon), citrus (Citrus sinensis), common chickweed (Stellaria media), common purslane (Portulaca oleracea), common ragweed (Ambrosia elatior), common groundsel (Senecio vulgaris), dallisgrass (Paspalum dilatatum), goosegrass (Eleusine indica), green foxtail (Setaria viridis), guineagrass (Panicum maximum), itchgrass (Rottboellia exaltata), johnson grass (Sorghum halepense), kochia (Kochia scoparia), large crabgrass (Digitaria sanguinalis), leafy spurge (Euphorbia esula), pitted morningglory (Ipomoea lacunosa), purple nutsedge (Cyperus rotundus), quackgrass (Agropyron repens), Russian thistle (Salsola kali), sandbur (Cenchrus echinatus), sourgrass (Trichachne insularis), Spanishneedles (Bidens bipinnata), sugarcane (Saccharum officinarum), surinam grass (Brachiaria decumbens) and tall mallow (Malva sylvestris) were planted into greenhouse pots of flats containing greenhouse planting medium. Plant species were grown grown in separate pots or individual compartments. Preemergence applications were made within one day of planting the seed or plant part. Postemergence applications were applied when the plants were in the two to four leaf stage (three to twenty cm).
(§2) Test chemicals were formulated in a non-phytotoxic solvent mixture which included a surfactant and applied preemergence to the soil surface, postemergence to the plants or as a post directed spray to plants and soil at the base of the target species. Untreated control plants and treated plants were placed in the greenhouse and visually evaluated for injury 13 to 21 days after herbicide application. Plant response ratings, summarized in Table E, are based on a 0 to 100 scale where 0 is no injury and 100 is complete control. A dash (−) response means no test result.

[2] = test system: johnson grass (Sorghum halepense); assay: Test E pre-/postemergence/post directed
Source text: as §1, §2

[3] = test system: common ragweed (Ambrosia elatior); assay: Test E pre-/postemergence/post directed
Source text: as §1, §2

[4] = test system: pitted morningglory (Ipomoea lacunosa); assay: Test E pre-/postemergence/post directed
Source text: as §1, §2

[5] = test system: Spanishneedles (Bidens bipinnata); assay: Test E pre-/postemergence/post directed
Source text: as §1, §2

[6] = test system: bermudagrass (Cynodon dactylon); assay: Test E pre-/postemergence/post directed; conditions: PREEMERGENCE
Source text: as §1, §2

[7] = test system: sandbur (Cenchrus echinatus); assay: Test E pre-/postemergence/post directed; conditions: PREEMERGENCE
Source text: as §1, §2

[8] = test system: common groundsel (Senecio vulgaris); assay: Test E pre-/postemergence/post directed
Source text: as §1, §2

[9] = test system: alexandergrass (Brachiaria plantaginea); assay: Test E pre-/postemergence/post directed
Source text: as §1, §2

[10] = test system: itchgrass (Rottboellia exaltata); assay: Test E pre-/postemergence/post directed
Source text: as §1, §2

[11] = test system: purple nutsedge (Cyperus rotundus); assay: Test E pre-/postemergence/post directed; design: key: 0 is no injury; 100 is complete control
Source text: as §1, §2

[12] = test system: sandbur (Cenchrus echinatus); assay: Test E pre-/postemergence/post directed; design: key: 0 is no injury; 100 is complete control
Source text: as §1, §2

[13] = test system: cocklebur (Xanthium strumarium); assay: Test C; design: key: 0 was no effect; 100 was complete control; conditions: PREEMERGENCE
[14] = test system: surinam grass (Brachiaria decumbens); assay: Test E pre-/postemergence/post directed; conditions: PREEMERGENCE
Source text: as §1, §2

corn (Zea mays) = assay: Test C; design: key: 0 was no effect; 100 was complete control; conditions: PREEMERGENCE
[15] = test system: arrowleaf sida (Sida rhombifolia); assay: Test C; design: key: 0 was no effect; 100 was complete control; conditions: PREEMERGENCE
soybean (Glycine max) = assay: Test C; design: key: 0 was no effect; 100 was complete control; conditions: PREEMERGENCE
[16] = test system: large crabgrass (Digitaria sanguinalis); assay: Test C; design: key: 0 was no effect; 100 was complete control; conditions: PREEMERGENCE
[17] = test system: hairy beggarticks (Bidens pilosa); assay: Test C; design: key: 0 was no effect; 100 was complete control; conditions: PREEMERGENCE
[18] = test system: ivyleaf morningglory (Ipomoea hederacea); assay: Test C; conditions: PREEMERGENCE

Cc1cnc(-n2cnc(C(F)(F)F)c2)nc1Cc1cccc(C(F)(F)F)c1 [Compound 44]
Plant response rating, Large crabgrass ([1]; POSTEMERGENCE, Rate 125 g/ha): 10 | Plant response rating, Large crabgrass ([1]; POSTEMERGENCE, Rate 250 g/ha): 10 | Plant response rating, Large crabgrass ([1]; PREEMERGENCE, Rate 64 g/ha): 60 | Plant response rating, Large crabgrass ([1]; PREEMERGENCE, Rate 125 g/ha): 70 | Plant response rating, Large crabgrass ([1]; PREEMERGENCE, Rate 250 g/ha): 60 | Plant response rating, Johnsongrass ([2]; POSTEMERGENCE, Rate 125 g/ha): 5 | Plant response rating, Johnsongrass ([2]; POSTEMERGENCE, Rate 250 g/ha): 10 | Plant response rating, Johnsongrass ([2]; PREEMERGENCE, Rate 32 g/ha): 30 | Plant response rating, Johnsongrass ([2]; PREEMERGENCE, Rate 125 g/ha): 60 | Plant response rating, Johnsongrass ([2]; PREEMERGENCE, Rate 250 g/ha): 75 | Plant response rating, Com. ragweed ([3]; POSTEMERGENCE, Rate 125 g/ha): 10 | Plant response rating, Com. ragweed ([3]; POSTEMERGENCE, Rate 250 g/ha): 20 | Plant response rating, Com. ragweed ([3]; PREEMERGENCE, Rate 32 g/ha): 40 | Plant response rating, Com. ragweed ([3]; PREEMERGENCE, Rate 64 g/ha): 85 | Plant response rating, Com. ragweed ([3]; PREEMERGENCE, Rate 125 g/ha): 98 | Plant response rating, P. morninglory ([4]; POSTEMERGENCE, Rate 125 g/ha): 30 | Plant response rating, P. morninglory ([4]; POSTEMERGENCE, Rate 250 g/ha): 40 | Plant response rating, P. morninglory ([4]; PREEMERGENCE, Rate 32 g/ha): 20 | Plant response rating, P. morninglory ([4]; PREEMERGENCE, Rate 64 g/ha): 30 | Plant response rating, P. morninglory ([4]; PREEMERGENCE, Rate 125 g/ha): 50 | Plant response rating, P. morninglory ([4]; PREEMERGENCE, Rate 250 g/ha): 50 | Plant response rating, Spanishneedles ([5]; POSTEMERGENCE, Rate 125 g/ha): 10 | Plant response rating, Spanishneedles ([5]; POSTEMERGENCE, Rate 250 g/ha): 10 | Plant response rating, Spanishneedles ([5]; PREEMERGENCE, Rate 32 g/ha): 20 | Plant response rating, Spanishneedles ([5]; PREEMERGENCE, Rate 64 g/ha): 60 | Plant response rating, Spanishneedles ([5]; PREEMERGENCE, Rate 125 g/ha): 70 | Plant response rating, Spanishneedles ([5]; PREEMERGENCE, Rate 250 g/ha): 98 | Plant response rating, Bermudagrass ([6]; Rate 32 g/ha): 30 | Plant response rating, Bermudagrass ([6]; Rate 64 g/ha): 80 | Plant response rating, Bermudagrass ([6]; Rate 125 g/ha): 98 | Plant response rating, Sandbur ([7]; Rate 64 g/ha): 60 | Plant response rating, Sandbur ([7]; Rate 125 g/ha): 70 | Plant response rating, Sandbur ([7]; Rate 250 g/ha): 80 | Plant response rating, Com. groundsel ([8]; POSTEMERGENCE, Rate 125 g/ha): 10 | Plant response rating, Com. groundsel ([8]; POSTEMERGENCE, Rate 250 g/ha): 10 | Plant response rating, Com. groundsel ([8]; PREEMERGENCE, Rate 32 g/ha): 98 | Plant response rating, Alexandergrass ([9]; POSTEMERGENCE, Rate 125 g/ha): 10 | Plant response rating, Alexandergrass ([9]; POSTEMERGENCE, Rate 250 g/ha): 10 | Plant response rating, Alexandergrass ([9]; PREEMERGENCE, Rate 64 g/ha): 40 | Plant response rating, Alexandergrass ([9]; PREEMERGENCE, Rate 125 g/ha): 40 | Plant response rating, Alexandergrass ([9]; PREEMERGENCE, Rate 250 g/ha): 50 | Plant response rating, Itchgrass ([10]; POSTEMERGENCE, Rate 125 g/ha): 5 | Plant response rating, Itchgrass ([10]; POSTEMERGENCE, Rate 250 g/ha): 10 | Plant response rating, Itchgrass ([10]; PREEMERGENCE, Rate 125 g/ha): 30 | Plant response rating, Itchgrass ([10]; PREEMERGENCE, Rate 250 g/ha): 40 | Plant response rating, Purple nutsedge ([11]; POSTEMERGENCE, Rate 125 g/ha): 0 | Plant response rating, Purple nutsedge ([11]; POSTEMERGENCE, Rate 250 g/ha): 0 | Plant response rating, Purple nutsedge ([11]; PREEMERGENCE, Rate 32 g/ha): 0 | Plant response rating, Purple nutsedge ([11]; PREEMERGENCE, Rate 64 g/ha): 0 | Plant response rating, Purple nutsedge ([11]; PREEMERGENCE, Rate 125 g/ha): 0 | Plant response rating, Purple nutsedge ([11]; PREEMERGENCE, Rate 250 g/ha): 0 | Plant response rating, Sandbur ([12]; POSTEMERGENCE, Rate 125 g/ha): 0 | Plant response rating, Sandbur ([12]; POSTEMERGENCE, Rate 250 g/ha): 0 | Plant response rating, Sandbur ([12]; PREEMERGENCE, Rate 32 g/ha): 0

CCc1cnc(-n2ccc(C(F)(F)F)n2)nc1Cc1cccc(C(F)(F)F)c1 [Compound 46]
Plant response rating, Cocklebur ([13]; Rate 35 g/ha): 0 | Plant response rating, Cocklebur ([13]; Rate 70 g/ha): 10 | Plant response rating, Cocklebur ([13]; Rate 140 g/ha): 5 | Plant response rating, Large crabgrass ([1]; PREEMERGENCE, Rate 32 g/ha): 90 | Plant response rating, Large crabgrass ([1]; PREEMERGENCE, Rate 64 g/ha): 98 | Plant response rating, Com. ragweed ([3]; PREEMERGENCE, Rate 64 g/ha): 98 | Plant response rating, Com. ragweed ([3]; PREEMERGENCE, Rate 125 g/ha): 98 | Plant response rating, Surinam grass ([14]; Rate 125 g/ha): 40 | Plant response rating, Surinam grass ([14]; Rate 250 g/ha): 55 | Plant response rating, P. morninglory ([4]; PREEMERGENCE, Rate 32 g/ha): 65 | Plant response rating, P. morninglory ([4]; PREEMERGENCE, Rate 64 g/ha): 65 | Plant response rating, P. morninglory ([4]; PREEMERGENCE, Rate 125 g/ha): 65 | Plant response rating, P. morninglory ([4]; PREEMERGENCE, Rate 250 g/ha): 65 | Plant response rating, Spanishneedles ([5]; PREEMERGENCE, Rate 32 g/ha): 65 | Plant response rating, Spanishneedles ([5]; PREEMERGENCE, Rate 64 g/ha): 85 | Plant response rating, Spanishneedles ([5]; PREEMERGENCE, Rate 125 g/ha): 90 | Plant response rating, Spanishneedles ([5]; PREEMERGENCE, Rate 250 g/ha): 90 | Plant response rating, Bermudagrass ([6]; Rate 32 g/ha): 70 | Plant response rating, Bermudagrass ([6]; Rate 64 g/ha): 98 | Plant response rating, Sandbur ([7]; Rate 64 g/ha): 10 | Plant response rating, Sandbur ([7]; Rate 125 g/ha): 10 | Plant response rating, Sandbur ([7]; Rate 250 g/ha): 30 | Plant response rating, Alexandergrass ([9]; PREEMERGENCE, Rate 125 g/ha): 60 | Plant response rating, Alexandergrass ([9]; PREEMERGENCE, Rate 250 g/ha): 60 | Plant response rating, Itchgrass ([10]; PREEMERGENCE, Rate 125 g/ha): 40 | Plant response rating, Itchgrass ([10]; PREEMERGENCE, Rate 250 g/ha): 40 | Plant response rating, Corn (corn (Zea mays); Rate 35 g/ha): 0 | Plant response rating, Corn (corn (Zea mays); Rate 70 g/ha): 0 | Plant response rating, Corn (corn (Zea mays); Rate 140 g/ha): 5 | Plant response rating, Arrowleaf sida ([15]; Rate 35 g/ha): 100 | Plant response rating, Arrowleaf sida ([15]; Rate 70 g/ha): 90 | Plant response rating, Arrowleaf sida ([15]; Rate 140 g/ha): 100 | Plant response rating, Purple nutsedge ([11]; PREEMERGENCE, Rate 32 g/ha): 0 | Plant response rating, Purple nutsedge ([11]; PREEMERGENCE, Rate 64 g/ha): 0 | Plant response rating, Purple nutsedge ([11]; PREEMERGENCE, Rate 125 g/ha): 0 | Plant response rating, Purple nutsedge ([11]; PREEMERGENCE, Rate 250 g/ha): 0 | Plant response rating, Sandbur ([12]; PREEMERGENCE, Rate 32 g/ha): 0 | Plant response rating, Soybean (soybean (Glycine max); Rate 35 g/ha): 0 | Plant response rating, Soybean (soybean (Glycine max); Rate 70 g/ha): 0 | Plant response rating, Soybean (soybean (Glycine max); Rate 140 g/ha): 20 | Plant response rating, Large crabgrass ([16]; Rate 35 g/ha): 80 | Plant response rating, Large crabgrass ([16]; Rate 70 g/ha): 100 | Plant response rating, Large crabgrass ([16]; Rate 140 g/ha): 100 | Plant response rating, H. beggarticks ([17]; Rate 35 g/ha): 0 | Plant response rating, H. beggarticks ([17]; Rate 70 g/ha): 100 | Plant response rating, H. beggarticks ([17]; Rate 140 g/ha): 100 | Plant response rating, I. morningglory ([18]; Rate 35 g/ha): 45 | Plant response rating, I. morningglory ([18]; Rate 70 g/ha): 50 | Plant response rating, I. morningglory ([18]; Rate 140 g/ha): 50
